{"source": "patent US11877993B1", "about": "“Gamma-hydroxybutyrate salts for the treatment of psychological disorders” (priority 2021, dated 2024)", "origin": "cited, not measured here", "system": "patients with severe PTSD", "settings": "MDMA-assisted therapy", "data": [{"smiles": "CNC(C)Cc1ccc2c(c1)OCO2", "note": "(stereo not drawn) [MDMA, 3,4-methylenedioxymethamphetamine]", "values": [{"measurement": "Tolerability", "setting": "individuals with severe PTSD, even with comorbidities", "value": "well-tolerated"}, {"measurement": "Attenuation in CAPS-5 score compared with placebo, effect size d", "setting": "severe PTSD, P<0.0001", "value": 0.91}, {"measurement": "Decrease of SDS total score, effect size d", "setting": "severe PTSD, P=0.0116", "value": 0.43}]}]}
